Test results: patent EP0885006B1, “PHARMACEUTICAL COMPOSITION ENABLING TO INHIBIT CANCER METASTASIS FORMATION CONTAINING N-ACETYL-CYSTEINE AND DOXORUBICIN” (ZAMBON GROUP S.p.A., priority 1996, dated 1997)
Values joined by “and” are separate entries in the source; they are usually repeats but may differ in a detail not shown here. Equal entries are not always repeated.

Tested on: B16-BL6 murine melanoma cells
Assay: Tumorigenicity and "spontaneous" metastasis assay (s.c. footpad injection of cancer cells)
Assay type: in vivo, female C57BL/6 mice
Conditions: for Survival (days) (mean ± ES) / Lung metastases Frequency (%) / Lung metastases No. (mean ± ES) / Primary tumors Frequency (%) / Primary tumors Weight g (mean ± ES) / Local recurrencies Frequency (%) / Local recurrencies Weight g (mean ± ES): DOX+NAC same doses; for reduction in the number of lung metastases with respect to controls / reduction in the weight of primary tumors with respect to controls / weight of primary tumors 4 weeks after injection of cancer cells (effect in words) / reduction in the weight of local recurrencies with respect to controls: combined same doses
Protocol: DOX was used in the form of commercial injectable product, containing 10 mg of drug per vial (Adriblastina®, Farmitalia - Carlo Erba, Milano, Italia), to be dissolved in distilled water when injected. In the experiments wherein the oral administration was provided, NAC was used in the form of commercial product containing 200 mg of NAC per dosage (Fluimucil®, Zambon Italia, Vicenza), directly dissolved in the drinking water of mice. In the experiments wherein the parenteral (i.p. or i.v.) administration of NAC was foreseen, a 98% pure laboratory reagent (Sigma Chemical Co., St. Louis, MO, U.S.A.) was used, dissolved in a phosphate buffer (PBS), pH 7.4, and furtherly brought to neutrality with NaOH 0.1 N ("spontaneous" metastasis assays) or in NaCl 0.15 M, taking the solution to pH 7.0 (experimental metastasis assays).
A total of 385 adult mice was used (Charles River, Calco, Como, Italia) of which 196 female nude (CD-1)BR mice, aged 7 weeks, average weight of 25 g and 189 female C57BL/6 mice aged 6-8 weeks, average weight of 20 g, used in the experimental metastasis assays and in those of "spontaneous" metastases respectively. The (CD-1)BR mice were housed in sterile cages with filtering cover, in a number of 3 animals per cage, at a room temperature of 26-28°C, with a relative humidity of 55%, a ventilation accounting for 12-15 air/h renewals and a 12 hours day/night cycle; the C57BL/6 mice were stabulated in a number of 5 animals per cage, at a temperature of 25-27°C, with a relative humidity of 50% and a 12 hours day/night cycle. The (CD-1)BR mice received a special diet sterilized under vacuum (Mucedola S.r.L, Settimo Milanese, Milano, Italia) and sterilized drinking water; the C57BL/6 mice received a standard rodent diet (MIL Topi e Ratti, Morini, S. Polo d'Enza, Reggio Emilia, Italia) and drinking water ad libitum throughout the duration of the experiments. Within the experiments wherein the sacrifice of mice was foreseen at a scheduled time, killing was carried out by means of ethyl ether anaesthesia and subsequent cervical dislocation. The stabulation and all the animal treatments were carried out in accordance with the national and Community guidelines (D.L. 27.01.1992 N. 116; 86/609/EEC Directive).
In this kind of experiment, B16-BL6 murine melanoma cells were injected s.c. in the footpad of the right hind leg (5 x 10^5 cells/mouse in experiment #5, 2 x 10^5 cells/mouse in experiments #6, #7 and #8).
With such a technique a primary tumor is formed in the side of injection, from which starts the spread of metastases to the lungs.
Also in these experiments 4 groups were taken into consideration. In all the experiments NAC was administered with drinking water, at a dose of 2 g/kg body weight, starting 48-72 hours before injection of cancer cells and continuing until the end of each experiment. In experiment #5 DOX was administered by i.p. route (2 mg/kg body weight), 24 hours after injection of cancer cells. In experiments #6, #7 and #8 DOX was instead administered by i.v. route (10 mg/kg body weight), 24 hours (#6 and #7) or 7 days (#8) after injection of cancer cells.
In experiments #5, #7 and #8 mice were maintained until spontaneous death, so as to have indications also about the effect of treatment on survival. Both the primary tumors (frequency and weight) and the lung metastases (frequency and number) were therefore evaluated at the time of death.
In experiment #6 instead, 4 weeks after injection of the cancer cells, the leg carrying the primary tumor was removed. Further 4 weeks later the animals were killed, the tumors which gave recurrencies in the leg stump were excised and weighed, and the lung metastases were scored.
Four additional experiments, two of which partially overlapping (#7 and #8) were designed in order to evaluate the effects of NAC and DOX, individually or in combination, on the formation of local primary tumors and on the subsequent spread of lung metastases. […]

[1] = experiment #5, 5 x 10^5 cells/mouse, DOX 2 mg/kg i.p. +24h, NAC 2 g/kg p.o. -48 h/end
[2] = experiment #5, 5 x 10^5 cells/mouse, DOX 2 mg/kg i.p. +24h, NAC 2 g/kg p.o. -48 h/end, at spontaneous death
[3] = experiment #5, DOX 2 mg/kg i.p. +24 h, NAC 2 g/kg p.o.
[4] = experiment #6, 2 x 10^5 cells/mouse, DOX 10 mg/kg i.v. +24h, NAC 2 g/kg p.o. -48 h/56 days, leg removed 4 weeks after cells
[5] = experiment #6, 2 x 10^5 cells/mouse, DOX 10 mg/kg i.v. +24h, NAC 2 g/kg p.o. -48 h/56 days, sacrifice at 8 weeks
[6] = experiment #6, DOX 10 mg/kg +24 h, NAC 2 g/kg p.o.
[7] = experiment #6, DOX 10 mg/kg +24 h, NAC 2 g/kg p.o., 4 weeks
[8] = experiment #6, DOX 10 mg/kg +24 h, NAC 2 g/kg p.o., 8 weeks
[9] = experiment #7 (NAC group common to #7/8), DOX 10 mg/kg i.v. +24 h, NAC 2 g/kg p.o.
[10] = experiment #7, 2 x 10^5 cells/mouse, DOX 10 mg/kg i.v. +24h, NAC 2 g/kg p.o. -72 h/end
[11] = experiment #7, 2 x 10^5 cells/mouse, DOX 10 mg/kg i.v. +24h, NAC 2 g/kg p.o. -72 h/end, at spontaneous death
[12] = experiment #8, 2 x 10^5 cells/mouse, DOX 10 mg/kg i.v. +7 gg. (7 days), NAC 2 g/kg p.o. -72 h/end
[13] = experiment #8, 2 x 10^5 cells/mouse, DOX 10 mg/kg i.v. +7 gg. (7 days), NAC 2 g/kg p.o. -72 h/end, at spontaneous death

SMILES: CC(=O)N[C@@H](CS)C(=O)O [NAC, N-acetyl-cysteine]
- Survival (days) (mean ± ES) [1]: 32.2 ± 2.5 days
- Lung metastases Frequency (%) [2]: 83.3%
- Lung metastases No. (mean ± ES) [2]: 8.3 ± 6.8 No.
- Primary tumors Frequency (%) [2]: 100.0%
- Primary tumors Weight g (mean ± ES) [2]: 1.9 ± 0.4 g
- weight of primary tumors (effect in words) [3]: more than halved
- reduction in the number of lung metastases with respect to controls [3]: 7.2 fold
- reduction in the weight of primary tumors with respect to controls [3]: 2.1 fold
- Primary tumors Frequency (%) [4]: 93.3%
- Primary tumors Weight g (mean ± ES) [4]: 0.28 ± 0.04 g
- Local recurrencies Frequency (%) [5]: 53.3%
- Local recurrencies Weight g (mean ± ES) [5]: 2.8 ± 0.8 g
- Lung metastases Frequency (%) [5]: 45.5%
- Lung metastases No. (mean ± ES) [5]: 12.9 ± 7.8 No.
- weight of primary tumors 4 weeks after injection of cancer cells (effect in words) [6]: not affected
- reduction in the weight of primary tumors with respect to controls [7]: 1.0 fold
- reduction in the number of lung metastases with respect to controls [8]: 1.6 fold
- reduction in the weight of local recurrencies with respect to controls [8]: 0.9 fold
- reduction in the number of lung metastases with respect to controls [9]: 2.1 fold
- Survival (days) (mean ± ES) [10]: 60.1 ± 3.7 days
- Lung metastases Frequency (%) [11]: 18.2%
- Lung metastases No. (mean ± ES) [11]: 9.5 ± 8.3 No.
- Primary tumors Frequency (%) [11]: 100.0%
- Primary tumors Weight g (mean ± ES) [11]: 1.9 ± 0.6 g
- Survival (days) (mean ± ES) [12]: 60.1 ± 3.7 days
- Lung metastases Frequency (%) [13]: 18.2%
- Lung metastases No. (mean ± ES) [13]: 9.5 ± 8.3 No.
- Primary tumors Frequency (%) [13]: 100.0%
- Primary tumors Weight g (mean ± ES) [13]: 1.9 ± 0.6 g
- inhibition in the frequency of lung metastases with respect to controls (experiments #7/8, NAC 2 g/kg p.o.): 4.8 fold
- survival of mice (effect in words) (experiments #7 and #8, NAC 2 g/kg p.o., DOX 10 mg/kg i.v. +24 h or +7 days): enhanced remarkably the survival

SMILES: COc1cccc2c1C(=O)c1c(O)c3c(c(O)c1C2=O)C[C@@](O)(C(=O)CO)C[C@@H]3O[C@H]1C[C@H](N)[C@H](O)[C@H](C)O1 [DOX, Doxorubicin]
- Survival (days) (mean ± ES) [1]: 31.2 ± 4.7 days
- Lung metastases Frequency (%) [2]: 100.0%
- Lung metastases No. (mean ± ES) [2]: 10.0 ± 6.4 No.
- Primary tumors Frequency (%) [2]: 100.0%
- Primary tumors Weight g (mean ± ES) [2]: 3.0 ± 1.3 g
- weight of primary tumors (effect in words) [3]: did not decrease to a significant extent
- reduction in the number of lung metastases with respect to controls [3]: 6 fold and 6.0 fold
- reduction in the weight of primary tumors with respect to controls [3]: 1.3 fold
- Primary tumors Frequency (%) [4]: 92.3%
- Primary tumors Weight g (mean ± ES) [4]: 0.21 ± 0.05 g
- Local recurrencies Frequency (%) [5]: 69.2%
- Local recurrencies Weight g (mean ± ES) [5]: 2.2 ± 0.7 g
- Lung metastases Frequency (%) [5]: 75.0%
- Lung metastases No. (mean ± ES) [5]: 32.6 ± 12.2 No.
- weight of primary tumors 4 weeks after injection of cancer cells (effect in words) [6]: not affected
- reduction in the weight of primary tumors with respect to controls [7]: 1.4 fold
- reduction in the number of lung metastases with respect to controls [8]: 0.7 fold
- reduction in the weight of local recurrencies with respect to controls [8]: 1.1 fold
- reduction in the number of lung metastases with respect to controls [9]: 0.9 fold
- Survival (days) (mean ± ES) [10]: 51.3 ± 1.9 days
- Lung metastases Frequency (%) [11]: 76.9%
- Lung metastases No. (mean ± ES) [11]: 23.0 ± 10.0 No.
- Primary tumors Frequency (%) [11]: 100.0%
- Primary tumors Weight g (mean ± ES) [11]: 2.2 ± 0.6 g
- survival (effect in words) (experiment #7, DOX 10 mg/kg i.v. 24 hours after injection of cancer cells): prolonged survival
- Survival (days) (mean ± ES) [12]: 49.0 ± 2.8 days
- Lung metastases Frequency (%) [13]: 63.6%
- Lung metastases No. (mean ± ES) [13]: 12.6 ± 9.0 No.
- Primary tumors Frequency (%) [13]: 100.0%
- Primary tumors Weight g (mean ± ES) [13]: 2.3 ± 0.6 g
- survival curves and mean survival time (effect in words) (experiment #8, DOX 10 mg/kg i.v. 7 days after injection of cancer cells, NAC 2 g/kg p.o.): did not affect the survival curves nor the mean survival time
